This assay relates to total-p53 in MCF-7 cells. The assay is described as follows: HTRF total-p53 in MCF-7 cells. The settings on record: median, read-out: HTRF total-p53 MCF-7, IC50 - [mol/l] (median). It counts as cell-based. On the procedure: Day 1: MCF-7 cells were seeded (10,000 cells in 12 μl/well) in a 384-well-Small Volume-plate (Greiner Bio One #784075) in culture medium (RPMI 1640; (Biochrom; #F 1275; without PhenolRed)+FCS (final: 10%); (Biochrom; #S 0415)+Insulin (bovine); (final: 10 μg/mL, Biochrom; #K 3510)+L-Alanyl-L-Glutamine; (final: 2 mM, Biochrom; #K 0302)+Natriumpyruvat; (final: 1 mM, Biochrom; #L 0473)+Non Essentiell Amino Acids; (final: 1×, Biochrom; #K 0293)). The cells were then treated with different compounds or DMSO (added with the HP Dispenser) and incubated for 2 h at 37° C. Following incubation, the cells were lysed in 4 μl of lysis buffer for 1 h shaking at RT. Finally, 4 μl of antibody solution was added and the samples are incubated overnight at RT, shaking.
Total-p53 was detected in a sandwich assay format using 2 different specific antibodies, one labeled with Eu3+-Cryptate (donor) and the second with d2 (acceptor). Kit: HTRF total p53 detection assay (Cisbio Cat: 64T53PEG).
Day 2: the plate was read on PHERAstar FS (BMG Labtech settings; optic module: HTRF; integration start: 60 us; integration time: 400 μs; flash lamp). IC50 values were calculated using the DRC application in ShiNy Analysis Platform-SNAP.”
For orientation: In TR-FRET formats the signal depends on donor and acceptor labels being close together.

The mark [1] stands for this setting: Homo sapiens, MCF7, 2 h incubation.

Structures are written as SMILES. Read-outs that look alike come from different tables or passages of the source.

As to `O=C(Cc1cnc2ccccn12)Nc1cc(-c2[nH]c3cccnc3c2-c2ccccn2)ccn1` [Example 1, 2-imidazo[1,2-a]pyridin-3-yl-N-[4-[3-(2-pyridyl)-^1H-pyrrolo[3,2-b]pyridin-2-yl]-2-pyridyl]acetamide], the IC50 under setting [1] amounted to 193 nM. As to `Cn1cc(CC(=O)Nc2cc(-c3[nH]c4cccnc4c3-c3ccccn3)ccn2)cn1` [Example 2, 2-(1-methylpyrazol-4-yl)-N-[4-[3-(2-pyridyl)-^1H-pyrrolo[3,2-b]pyridin-2-yl]-2-pyridyl]acetamide], the IC50 under setting [1] is 264 nM. Same read-out and setting: the result for `Cn1cnc(CC(=O)Nc2cc(-c3[nH]c4cccnc4c3-c3ccccn3)ccn2)c1` [Example 5, 2-(1-methylimidazol-4-yl)-N-[4-[3-(2-pyridyl)-^1H-pyrrolo[3,2-b]pyridin-2-yl]-2-pyridyl]acetamide] reads 924 nM; that for `Cc1nn(C)cc1CC(=O)Nc1cc(-c2[nH]c3cccnc3c2-c2ccccn2)ccn1` [Example 9, 2-(1,3-dimethylpyrazol-4-yl)-N-[4-[3-(2-pyridyl)-^1H-pyrrolo[3,2-b]pyridin-2-yl]-2-pyridyl]acetamide], 210 nM; that for `O=C(Cc1ccon1)Nc1cc(-c2[nH]c3cccnc3c2-c2ccccn2)ccn1` [Example 10, 2-isoxazol-3-yl-N-[4-[3-(2-pyridyl)-^1H-pyrrolo[3,2-b]pyridin-2-yl]-2-pyridyl]acetamide], 262 nM.

`Cc1ocnc1CC(=O)Nc1cc(-c2[nH]c3cccnc3c2-c2ccccn2)ccn1` [Example 11, 2-(5-methyloxazol-4-yl)-N-[4-[3-(2-pyridyl)-^1H-pyrrolo[3,2-b]pyridin-2-yl]-2-pyridyl]acetamide]: the IC50 under setting [1] amounted to 375 nM. The same measure, in the same setting: to `Cc1noc(C)c1CC(=O)Nc1cc(-c2[nH]c3cccnc3c2-c2ccccn2)ccn1` [Example 12, 2-(3,5-dimethylisoxazol-4-yl)-N-[4-[3-(2-pyridyl)-^1H-pyrrolo[3,2-b]pyridin-2-yl]-2-pyridyl]acetamide] belongs 205 nM. On the same count and under the same terms, to `Cc1cc(CC(=O)Nc2cc(-c3[nH]c4cccnc4c3-c3ccccn3)ccn2)on1` [Example 13, 2-(3-methylisoxazol-5-yl)-N-[4-[3-(2-pyridyl)-^1H-pyrrolo[3,2-b]pyridin-2-yl]-2-pyridyl]acetamide] belongs 152 nM; to `Cc1cc(CC(=O)Nc2cc(-c3[nH]c4cccnc4c3-c3ccccn3)ccn2)n(C)n1` [Example 14], 143 nM; to `Cc1cc(CC(=O)Nc2cc(-c3[nH]c4cccnc4c3-c3ccccn3)ccn2)nn1C` [Example 16, 2-(1,5-dimethylpyrazol-3-yl)-N-[4-[3-(2-pyridyl)-^1H-pyrrolo[3,2-b]pyridin-2-yl]-2-pyridyl]acetamide], 193 nM.

For `Cc1nn(C)c(C)c1CC(=O)Nc1cc(-c2[nH]c3cccnc3c2-c2ccccn2)ccn1` [Example 17, N-[4-[3-(2-pyridyl)-^1H-pyrrolo[3,2-b]pyridin-2-yl]-2-pyridyl]-2-(1,3,5-trimethylpyrazol-4-yl)acetamide], the IC50 under setting [1] stood at 198 nM.

For `Cn1cc(C(CC(F)F)C(=O)Nc2cc(-c3[nH]c4cccnc4c3-c3ccccn3)ccn2)cn1` (stereo not drawn) [Example 19, 4,4-difluoro-2-(1-methylpyrazol-4-yl)-N-[4-[3-(2-pyridyl)-^1H-pyrrolo[3,2-b]pyridin-2-yl]-2-pyridyl]butanamide], the IC50 under setting [1] was 407 nM. Still for that read-out and setting: to `O=C(Cc1ccn(CC(F)(F)F)n1)Nc1cc(-c2[nH]c3cccnc3c2-c2ccccn2)ccn1` [Example 20, N-[4-[3-(2-pyridyl)-^1H-pyrrolo[3,2-b]pyridin-2-yl]-2-pyridyl]-2-[1-(2,2,2-trifluoroethyl)pyrazol-3-yl]acetamide] belongs 184 nM; to `O=C(Cc1ccns1)Nc1cc(-c2[nH]c3cccnc3c2-c2ccccn2)ccn1` [Example 22, 2-isothiazol-5-yl-N-[4-[3-(2-pyridyl)-^1H-pyrrolo[3,2-b]pyridin-2-yl]-2-pyridyl]acetamide], 119 nM.

Turning to `O=C(Cc1ccno1)Nc1cc(-c2[nH]c3cccnc3c2-c2ccccn2)ccn1` [Example 23, 2-isoxazol-5-yl-N-[4-[3-(2-pyridyl)-^1H-pyrrolo[3,2-b]pyridin-2-yl]-2-pyridyl]acetamide], the IC50 under setting [1] stood at 120 nM. Still for that read-out and setting: to `Cc1ncc(CC(=O)Nc2cc(-c3[nH]c4cccnc4c3-c3ccccn3)ccn2)o1` [Example 24, 2-(2-methyloxazol-5-yl)-N-[4-[3-(2-pyridyl)-^1H-pyrrolo[3,2-b]pyridin-2-yl]-2-pyridyl]acetamide] belongs 174 nM; to `Cc1nc(CC(=O)Nc2cc(-c3[nH]c4cccnc4c3-c3ccccn3)ccn2)co1` [Example 25, 2-(2-methyloxazol-4-yl)-N-[4-[3-(2-pyridyl)-^1H-pyrrolo[3,2-b]pyridin-2-yl]-2-pyridyl]acetamide], 321 nM; to `Cc1cc(CC(=O)Nc2cc(-c3[nH]c4cccnc4c3-c3ccccn3)ccn2)no1` [Example 26, 2-(5-methylisoxazol-3-yl)-N-[4-[3-(2-pyridyl)-^1H-pyrrolo[3,2-b]pyridin-2-yl]-2-pyridyl]acetamide], 176 nM. The same measure, in the same setting: the result for `O=C(Cc1cc(C2CC2)on1)Nc1cc(-c2[nH]c3cccnc3c2-c2ccccn2)ccn1` [Example 27, 2-(5-cyclopropylisoxazol-3-yl)-N-[4-[3-(2-pyridyl)-^1H-pyrrolo[3,2-b]pyridin-2-yl]-2-pyridyl]acetamide] reads 169 nM.

Turning to `Cn1nc(CC(=O)Nc2cc(-c3[nH]c4cccnc4c3-c3ccccn3)ccn2)cc1C1CC1` [Example 29, 2-(5-cyclopropyl-1-methyl-pyrazol-3-yl)-N-[4-[3-(2-pyridyl)-^1H-pyrrolo[3,2-b]pyridin-2-yl]-2-pyridyl]acetamide], the IC50 under setting [1] is 199 nM.

`Cc1nocc1CC(=O)Nc1cc(-c2[nH]c3cccnc3c2-c2ccccn2)ccn1` [Example 30, 2-(3-methylisoxazol-4-yl)-N-[4-[3-(2-pyridyl)-^1H-pyrrolo[3,2-b]pyridin-2-yl]-2-pyridyl]acetamide]: the IC50 under setting [1] is 226 nM. Take `O=C(Nc1cc(-c2[nH]c3nccnc3c2-c2ccccn2)ccn1)[C@@H](CC(F)F)c1ccc(F)cc1` [Example C1, reference compound]: under “2 h incubation”, the IC50 stood at 72.8 nM. Same read-out and setting: to `O=C(Nc1cc(-c2[nH]c3ccc(F)nc3c2-c2ccccn2)ccn1)[C@@H](CC(F)F)c1ccc(F)cc1` [Example C2, reference compound] belongs 72.4 nM; to `O=C(Nc1cc(-c2[nH]c3c(OCC(F)F)ncnc3c2-c2ccccn2)ccn1)[C@@H](CC(F)F)c1ccc(F)cc1` [Example C3, reference compound], 97.9 nM.

The record behind these values is patent publication US20250188075A1, “SUBSTITUTED HETEROCYCLIC CSNK1 INHIBITORS” (The Broad Institute, Inc., priority 2022, published 2025).
